Experimental data as given in paper PMC5058426 (Journal of porphyrins and phthalocyanines, 2016).

Tests used:
[1] = reference standard value; cited from earlier work
HEp2 cells [2] = test: Phototoxicity, Cell Titer Blue assay; type: cell-based, human; conditions: 24 h
HEp2 cells [3] = test: Time-dependent cellular uptake; type: cell-based, human; conditions: 10 μM; for cellular accumulation compared with MPIX 3: all time points over 24 h
[4] = target: EGFR extracellular domain (Homo sapiens, UniProt P00533); test: SPR binding to immobilized EGFR; conditions: SPR sensorgram, 400 to 500 s, 100 μM
[5] = Fluorescence quantum yield in DMF; type: physicochemical; conditions: room temperature, calculated using porphyrin 3 as standard (0.102)

Chain of EGFR extracellular domain (P00533 25-645 limits assumed): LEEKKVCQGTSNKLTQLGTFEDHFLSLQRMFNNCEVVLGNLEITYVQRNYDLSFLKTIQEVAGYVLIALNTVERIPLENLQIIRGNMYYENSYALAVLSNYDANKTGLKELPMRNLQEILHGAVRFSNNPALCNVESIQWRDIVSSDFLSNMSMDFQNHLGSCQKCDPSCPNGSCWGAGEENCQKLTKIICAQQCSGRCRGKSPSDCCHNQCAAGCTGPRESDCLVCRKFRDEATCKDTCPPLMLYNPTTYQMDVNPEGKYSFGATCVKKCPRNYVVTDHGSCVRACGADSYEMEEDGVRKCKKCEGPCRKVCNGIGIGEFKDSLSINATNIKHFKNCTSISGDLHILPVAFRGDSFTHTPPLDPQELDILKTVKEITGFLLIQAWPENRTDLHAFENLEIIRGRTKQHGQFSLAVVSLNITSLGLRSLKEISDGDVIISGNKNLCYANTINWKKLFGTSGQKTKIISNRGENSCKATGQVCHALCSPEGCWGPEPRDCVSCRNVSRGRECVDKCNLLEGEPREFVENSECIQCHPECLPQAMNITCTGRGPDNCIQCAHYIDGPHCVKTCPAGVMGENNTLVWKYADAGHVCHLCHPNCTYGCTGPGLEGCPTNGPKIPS

Compound	cellular accumulation compared with MPIX 3 (HEp2 cells [3])	Φf (fluorescence quantum yield) [5]	other results
CCC1=C(C)c2cc3[nH]c(cc4[nH]c(cc5nc(cc1n2)C(C)=C5CC)c(C)c4CCC(=O)O)c(CCC(=O)O)c3C [Compound 3, mesoporphyrin IX]			ΦF (fluorescence quantum yield) [1]: 0.102
CCC1=C(C)c2cc3[nH]c(cc4nc(cc5[nH]c(cc1n2)c(C)c5CCC(=O)N[C@@H](CC(C)C)C(=O)N[C@@H](C)C(=O)N[C@@H](CCCNC(=N)N)C(=O)N[C@@H](CC(C)C)C(=O)N[C@@H](CC(C)C)C(=O)N[C@H](C(N)=O)[C@@H](C)O)C(CCC(=O)N[C@@H](CC(C)C)C(=O)N[C@@H](C)C(=O)N[C@@H](CCCNC(=N)N)C(=O)N[C@@H](CC(C)C)C(=O)N[C@@H](CC(C)C)C(=O)N[C@H](C(N)=O)[C@@H](C)O)=C4C)c(C)c3CC [Compound 4]	much larger extent than MPIX 3		IC50 (HEp2 cells [2]): 50 µM; cellular accumulation ranking at early times (HEp2 cells [3]; times < 4 h): accumulated the most
CCC1=C(C)c2cc3[nH]c(cc4nc(cc5[nH]c(cc1n2)c(C)c5CCC(=O)NCC(=O)N[C@@H](Cc1ccc(O)cc1)C(=O)N[C@@H](Cc1c[nH]cn1)C(=O)N[C@@H](Cc1c[nH]c2ccccc12)C(=O)N[C@@H](Cc1ccc(O)cc1)C(=O)NCC(=O)N[C@@H](Cc1ccc(O)cc1)C(=O)N[C@H](C(=O)N1CCC[C@H]1C(=O)N[C@@H](CCC(N)=O)C(=O)N[C@@H](CC(N)=O)C(=O)N[C@H](C(=O)N[C@H](C(N)=O)[C@@H](C)CC)C(C)C)[C@@H](C)O)C(CCC(=O)O)=C4C)c(C)c3CC [Compound 5]	much larger extent than MPIX 3	0.124	dissociation rate from EGFR [4]: slower dissociation rates
GYHWYGYTPQNVI [Compound 8]	much larger extent than MPIX 3	0.132	cellular uptake relative to MPIX 3 (HEp2 cells [3]; after 24 h): about 8 fold
LARLLT [Compound 7]	accumulated significantly less	0.124	
